Measurements reported in PubChem BioAssay (NCI).
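96-well plates; 48 h exposure; 5 concentrations. Endpoints by linear interpolation between flanking doses. Not reached: highest tested concentration assigned. Here, GI50 denotes the concentration required for 50% inhibition of growth. TGI: concentration producing complete growth inhibition.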

Legend:
Assay in all cases: DTP human tumour cell line panel, 48 h
ACHN renal = test system: ACHN renal
MCF7 breast = test system: MCF7 breast
NCI-H226 lung = test system: NCI-H226 lung
HOP-62 NSCLC = test system: HOP-62 NSCLC
A549 NSCLC = test system: A549 NSCLC
SK-MEL-5 melanoma = test system: SK-MEL-5 melanoma
SK-MEL-2 melanoma = test system: SK-MEL-2 melanoma
U251 CNS = test system: U251 CNS
HCT-15 colon = test system: HCT-15 colon
SN12C renal = test system: SN12C renal
PC-3 prostate = test system: PC-3 prostate
LOX IMVI melanoma = test system: LOX IMVI melanoma
UACC-257 melanoma = test system: UACC-257 melanoma
OVCAR-3 ovarian = test system: OVCAR-3 ovarian
SW-620 colon = test system: SW-620 colon
SF-539 CNS = test system: SF-539 CNS
OVCAR-4 ovarian = test system: OVCAR-4 ovarian
RPMI-8226 leukemia = test system: RPMI-8226 leukemia
786-0 renal = test system: 786-0 renal
MALME-3M melanoma = test system: MALME-3M melanoma
NCI-H23 lung = test system: NCI-H23 lung
A498 renal = test system: A498 renal
EKVX NSCLC = test system: EKVX NSCLC
UO-31 renal = test system: UO-31 renal
SNB-75 CNS = test system: SNB-75 CNS
NCI/ADR-RES ovarian = test system: NCI/ADR-RES ovarian
M14 melanoma = test system: M14 melanoma
SF-268 CNS = test system: SF-268 CNS
OVCAR-8 ovarian = test system: OVCAR-8 ovarian
SK-MEL-28 melanoma = test system: SK-MEL-28 melanoma
HL-60(TB) leukemia = test system: HL-60(TB) leukemia
MOLT-4 leukemia = test system: MOLT-4 leukemia
HS 578T breast = test system: HS 578T breast
IGROV1 ovarian = test system: IGROV1 ovarian
CAKI-1 renal = test system: CAKI-1 renal
MDA-MB-435 = test system: MDA-MB-435
NCI-H460 lung = test system: NCI-H460 lung
HCT-116 colon = test system: HCT-116 colon
SF-295 CNS = test system: SF-295 CNS
DU-145 prostate = test system: DU-145 prostate
NCI-H522 lung = test system: NCI-H522 lung
CCRF-CEM leukemia = test system: CCRF-CEM leukemia
BT-549 breast = test system: BT-549 breast
TK-10 renal = test system: TK-10 renal
HT29 colon = test system: HT29 colon
COLO 205 colon = test system: COLO 205 colon
SNB-19 CNS = test system: SNB-19 CNS
MDA-MB-231 breast = test system: MDA-MB-231 breast
SK-OV-3 ovarian = test system: SK-OV-3 ovarian
T-47D breast = test system: T-47D breast
OVCAR-5 ovarian = test system: OVCAR-5 ovarian
RXF 393 renal = test system: RXF 393 renal
K-562 leukemia = test system: K-562 leukemia
KM12 colon = test system: KM12 colon
SR leukemia = test system: SR leukemia
HCC-2998 colon = test system: HCC-2998 colon
UACC-62 melanoma = test system: UACC-62 melanoma

Cc1ccc(NCSc2ccc(Cl)cc2)cc1
GI50 (ACHN renal): > 100 µM
TGI (ACHN renal): > 100 µM
GI50 (MCF7 breast): > 100 µM
TGI (MCF7 breast): > 100 µM
GI50 (NCI-H226 lung): 44.7 µM
TGI (NCI-H226 lung): > 100 µM
GI50 (HOP-62 NSCLC): 30.7 µM
TGI (HOP-62 NSCLC): > 100 µM
GI50 (A549 NSCLC): 9.8 µM
TGI (A549 NSCLC): > 100 µM
GI50 (SK-MEL-5 melanoma): > 100 µM
TGI (SK-MEL-5 melanoma): > 100 µM
GI50 (SK-MEL-2 melanoma): > 100 µM
TGI (SK-MEL-2 melanoma): > 100 µM
GI50 (U251 CNS): 17.8 µM
TGI (U251 CNS): > 100 µM
GI50 (HCT-15 colon): > 100 µM
TGI (HCT-15 colon): > 100 µM
GI50 (SN12C renal): 7.01 µM
TGI (SN12C renal): > 100 µM
GI50 (PC-3 prostate): 10.2 µM
TGI (PC-3 prostate): > 100 µM
GI50 (LOX IMVI melanoma): > 100 µM
TGI (LOX IMVI melanoma): > 100 µM
GI50 (UACC-257 melanoma): > 100 µM
TGI (UACC-257 melanoma): > 100 µM
GI50 (OVCAR-3 ovarian): 9.22 µM
TGI (OVCAR-3 ovarian): > 100 µM
GI50 (SW-620 colon): > 100 µM
TGI (SW-620 colon): > 100 µM
GI50 (SF-539 CNS): 22.9 µM
TGI (SF-539 CNS): > 100 µM
GI50 (OVCAR-4 ovarian): 5.06 µM
TGI (OVCAR-4 ovarian): > 100 µM
GI50 (RPMI-8226 leukemia): 2.29 µM
TGI (RPMI-8226 leukemia): > 100 µM
GI50 (786-0 renal): 6.53 µM
TGI (786-0 renal): > 100 µM
GI50 (MALME-3M melanoma): > 100 µM
TGI (MALME-3M melanoma): > 100 µM
GI50 (NCI-H23 lung): 63.4 µM
TGI (NCI-H23 lung): > 100 µM
GI50 (A498 renal): 18.8 µM
TGI (A498 renal): > 100 µM
GI50 (EKVX NSCLC): 31.4 µM
TGI (EKVX NSCLC): > 100 µM
GI50 (UO-31 renal): 1.65 µM
TGI (UO-31 renal): 30.8 µM
GI50 (SNB-75 CNS): 9.92 µM
TGI (SNB-75 CNS): 45.5 µM
GI50 (NCI/ADR-RES ovarian): > 100 µM
TGI (NCI/ADR-RES ovarian): > 100 µM
GI50 (M14 melanoma): 77.1 µM
TGI (M14 melanoma): > 100 µM
GI50 (SF-268 CNS): 13.1 µM
TGI (SF-268 CNS): > 100 µM
GI50 (OVCAR-8 ovarian): > 100 µM
TGI (OVCAR-8 ovarian): > 100 µM
GI50 (SK-MEL-28 melanoma): > 100 µM
TGI (SK-MEL-28 melanoma): > 100 µM
GI50 (HL-60(TB) leukemia): 2.45 µM
TGI (HL-60(TB) leukemia): > 100 µM
GI50 (MOLT-4 leukemia): 6.15 µM
TGI (MOLT-4 leukemia): > 100 µM
GI50 (HS 578T breast): 24.7 µM
TGI (HS 578T breast): > 100 µM
GI50 (IGROV1 ovarian): 15.3 µM
TGI (IGROV1 ovarian): > 100 µM
GI50 (CAKI-1 renal): 5.51 µM
TGI (CAKI-1 renal): > 100 µM
GI50 (MDA-MB-435): 9.99 µM
TGI (MDA-MB-435): > 100 µM
GI50 (NCI-H460 lung): > 100 µM
TGI (NCI-H460 lung): > 100 µM
GI50 (HCT-116 colon): 55.4 µM
TGI (HCT-116 colon): > 100 µM
GI50 (SF-295 CNS): 24.9 µM
TGI (SF-295 CNS): > 100 µM
GI50 (DU-145 prostate): > 100 µM
TGI (DU-145 prostate): > 100 µM
GI50 (NCI-H522 lung): 21.9 µM
TGI (NCI-H522 lung): > 100 µM
GI50 (CCRF-CEM leukemia): 0.995 µM
TGI (CCRF-CEM leukemia): > 100 µM
GI50 (BT-549 breast): 6.43 µM
TGI (BT-549 breast): > 100 µM
GI50 (TK-10 renal): 51.8 µM
TGI (TK-10 renal): > 100 µM
GI50 (HT29 colon): > 100 µM
TGI (HT29 colon): > 100 µM
GI50 (COLO 205 colon): 5.94 µM
TGI (COLO 205 colon): > 100 µM
GI50 (SNB-19 CNS): 46.9 µM
TGI (SNB-19 CNS): > 100 µM
GI50 (MDA-MB-231 breast): 15.1 µM
TGI (MDA-MB-231 breast): > 100 µM
GI50 (SK-OV-3 ovarian): 67 µM
TGI (SK-OV-3 ovarian): > 100 µM
GI50 (T-47D breast): 9.55 µM
TGI (T-47D breast): > 100 µM
GI50 (OVCAR-5 ovarian): > 100 µM
TGI (OVCAR-5 ovarian): > 100 µM
GI50 (RXF 393 renal): 30.4 µM
TGI (RXF 393 renal): > 100 µM
GI50 (K-562 leukemia): > 100 µM
TGI (K-562 leukemia): > 100 µM
GI50 (KM12 colon): 9.91 µM
TGI (KM12 colon): > 100 µM
GI50 (SR leukemia): > 100 µM
TGI (SR leukemia): > 100 µM
GI50 (HCC-2998 colon): > 100 µM
TGI (HCC-2998 colon): > 100 µM
GI50 (UACC-62 melanoma): 87.2 µM
TGI (UACC-62 melanoma): > 100 µM
